Test results from patent US7932277B2, “Peptide inhibitors of hepatitis C virus replication” (InterMune, Inc., priority 2007, dated 2011).

How the values were obtained:
[1] = system: HCV sub-genomic replicon (1377/NS3-3') in HuH-7 hepatoma cells (GS4.3); assay: Quantitation by ELISA of NPTII in the HCV sub-genomic replicon, GS4.3; assay type: cell-based, hepatitis C virus (HCV); settings: Hepatitis C virus, Huh-7; GS4.3 cells, 72 h incubation, NPTII ELISA; read-out: Replicon EC50
How it was run: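 GS4.3 cells (HuH-7 carrying HCV 1377/NS3-3′ replicon) treated 72 h at 37 °C with compound at 3-fold dilutions from 10 μM to 56 pM final, 1% DMSO, without G418. NPTII in lysates quantified by ELISA (450 nm). Signal expressed as percent of DMSO control; EC50 by 4-parameter fit.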

[2] = biological target: T1, NS3/NS4A-2 (full-length HCV NS3 protease complexed with NS4A-2) (Hepatitis C virus genotype 1a, UniProt P27958); assay: NS3 inhibition assay (NS3-NS4 protease assay); assay type: biochemical; settings: recombinant full-length NS3/NS4A-2, RETS1 substrate, kinetic fluorescence read; read-out: NS3-NS4 IC50
T1 construct: Recombinant E. coli or Baculovirus full-length NS3; host or cells: E. coli or baculovirus (insect cells)
How it was run: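 Full-length NS3 (E. coli-expressed at 2 nM or baculovirus-expressed at 3 nM) precomplexed with excess NS4A-2 peptide and preincubated with compound (top concentration 50 μM) for 10 min at room temperature. RETS1 substrate added; fluorescence read kinetically for 30 min (ex 335/em 495 nm). IC50 converted to Ki using Km 2.03 μM (E. coli) or 1.74 μM (baculovirus).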

T1 sequence (P27958 1027-1657, one chain of several): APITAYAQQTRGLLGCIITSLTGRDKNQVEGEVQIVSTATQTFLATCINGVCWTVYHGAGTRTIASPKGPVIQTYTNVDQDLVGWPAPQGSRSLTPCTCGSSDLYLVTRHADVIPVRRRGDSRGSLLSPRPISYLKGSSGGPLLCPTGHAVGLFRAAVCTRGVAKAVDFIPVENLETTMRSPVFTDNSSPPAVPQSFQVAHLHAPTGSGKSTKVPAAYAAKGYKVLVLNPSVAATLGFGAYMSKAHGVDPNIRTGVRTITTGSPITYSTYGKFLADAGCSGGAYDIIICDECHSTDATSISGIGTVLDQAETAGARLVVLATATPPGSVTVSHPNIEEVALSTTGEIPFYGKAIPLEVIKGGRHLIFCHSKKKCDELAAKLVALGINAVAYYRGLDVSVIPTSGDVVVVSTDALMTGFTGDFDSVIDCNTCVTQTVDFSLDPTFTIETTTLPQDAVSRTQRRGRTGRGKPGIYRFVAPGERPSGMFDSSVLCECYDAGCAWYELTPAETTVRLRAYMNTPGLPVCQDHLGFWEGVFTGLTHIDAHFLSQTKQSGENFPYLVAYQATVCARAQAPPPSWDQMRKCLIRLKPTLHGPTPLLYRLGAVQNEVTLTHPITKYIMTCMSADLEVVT

## CC[C@@H]1C[C@]1(NC(=O)[C@@H]1C[C@@H](OC(=O)N2Cc3cccc(Cl)c3C2)CN1C(=O)[C@@H](Nc1cccc(N2CCOCC2)c1)C(C)(C)C)C(=O)NS(=O)(=O)C1CC1 [Compound 75]
[1]
  EC50: < 100 nM
[2]
  IC50: < 100 nM
